Our source for the GI50 and TGI values is PubChem BioAssay (NCI).

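Where inhibition never reached the appropriate level, the endpoint shown equals the highest concentration tested. Otherwise, values were interpolated linearly from a five-concentration, 48-hour dose response in 96-well plates. At the GI50, growth is halved. TGI: concentration producing complete growth inhibition.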

Test in all cases: NCI anticancer screen, dose series, 48 h
Test [1] deals with HCT-15 colon.
For test [2], the system named is HCT-116 colon.
Test [3] concerns IGROV1 ovarian.
Test [4] deals with SNB-75 CNS.
Test [5] concerns UACC-62 melanoma.
In test [6] the test system is TK-10 renal.
In test [7] the test system is OVCAR-8 ovarian.
Test [8] concerns HT29 colon.
The test system of test [9] is UO-31 renal.
Test [10] deals with PC-3 prostate.

As to `CO/N=C(\C)COc1ccc2c(=O)c(-c3ccccc3)coc2c1`, the GI50 in test [1] is 40.1 µM; in [2] it was 14.8 µM; in test [3], 24.7 µM; in test [4], 20 µM; in [5], 26.3 µM; in [6], 20 µM. In addition, the GI50 is 21.4 µM in test [7], greater than 100 µM in test [8], 22.2 µM in [9] and 34.5 µM in [10]. Moreover, the TGI was greater than 100 µM in test [1]; 30 µM in [2]; 77.9 µM in test [3]; 81.6 µM in test [4]; 93.6 µM in test [5]; 42.9 µM in test [6]. For the same compound, the TGI is 46.8 µM in test [7], greater than 100 µM in test [8], 46.3 µM in [9] and greater than 100 µM in [10].
Take `CCOC(=O)C(O)(NC(=O)c1ccccc1F)C(F)(F)F` (stereo not given): the TGI in test [1], in test [2], in test [3], in [4], in [5] and in test [6] was greater than 100 µM each time. The TGI in test [7], in test [8], in [9] and in [10] was greater than 100 µM in each case.
For the compound `N#Cc1c(N)sc2c1-c1ccccc1OC2`, the TGI is greater than 100 µM in test [1]; 82.8 µM in test [2]; greater than 100 µM in test [3]; greater than 100 µM in test [5]; greater than 100 µM in test [6]; greater than 100 µM in test [8]. The TGI in test [9] is 70 µM; in test [10], greater than 100 µM.
Consider `COc1cc(C2C(C(=O)O)=C(COC(C)=O)Oc3cc4c(cc32)OCO4)cc(OC)c1OC` (stereo not given), for which the TGI in test [1], in test [2], in test [3], in [4], in test [5] and in test [6] was greater than 100 µM in each case. The TGI in [7], in test [8] and in [9] was greater than 100 µM each time.
Regarding `CCc1ccc2nc(-c3ccc(O)cc3)sc2c1`, the TGI in test [1] stood at 29.4 µM; in test [2], 30.4 µM; in [3], 29.4 µM; in test [5], 25.1 µM; in [6], 35.7 µM; in test [7] it was 38.9 µM. Also, the TGI worked out at 30.2 µM in [8], 24.4 µM in test [9] and 29 µM in test [10].
In the case of `CN(C)c1ccc(C(Cc2ccc3ccccc3n2)Cc2ccc3ccccc3n2)cc1`, the GI50 in [2] is 2.64 µM; in test [3] it was 2.57 µM; in test [4] it was 3.24 µM; in test [5], 3.77 µM; in test [6], 4.93 µM; in test [8] it was 3.83 µM. In addition, in test [9], the GI50 was 1.96 µM. Besides, the TGI in test [2], in test [3], in [4], in test [5], in test [6] and in test [8] was greater than 100 µM in each case. This compound also yielded a TGI in [9] greater than 100 µM.
